Patent US8124793B2, “Derivatives of ethylene methanedisulfonate as cancer chemotherapeutic agents” (priority 2007, dated 2012)

Columns and labels:
Format in all cases: cell-based
[1] = test system: UO-31; test: NCI screen, growth of human tumor cells: Renal Cancer UO-31; conditions: UO-31 (Renal Cancer), 10^−4 molar
Procedure: (§1) In the NCI screening process, each compound was tested and described by a minimum of 60 data points. The test data include, but are not limited to the type of cancer, the molar concentration used in the screen, and the percent growth of the cancer. In some cases, NMR and elemental analysis were used for structural assignment.

[2] = test system: U-251; test: NCI screen, growth of human tumor cells: CNS Cancer U-251
Procedure: as §1

[3] = test system: SF-539; test: NCI screen, growth of human tumor cells: CNS Cancer SF-539; conditions: SF-539 (CNS Cancer), 10^−4 molar
Procedure: as §1

[4] = test system: SN12C; test: NCI screen, growth of human tumor cells: Renal Cancer SN12C; conditions: SN12C (Renal Cancer), 10^−4 molar
Procedure: as §1

[5] = test system: NCI-H23; test: NCI screen, growth of human tumor cells: Non-Small Cell Lung NCI-H23; conditions: NCI-H23 (Non-Small Cell Lung), 10^−4 molar
Procedure: as §1

[6] = test system: SF-268; test: NCI screen, growth of human tumor cells: CNS Cancer SF-268; conditions: SF-268 (CNS Cancer), 10^−4 molar
Procedure: as §1

[7] = test system: CCRF-CEM; test: NCI screen, growth of human tumor cells: Leukemia CCRF-CEM; conditions: CCRF-CEM (Leukemia), 10^−4 molar
Summary of the method: (§2)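 Under the NCI protocol, every compound is profiled with sixty or more data points. Each point ties a cancer type and a molar screening concentration to a percent growth value.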

[8] = test system: MDA-MB-231/ATCC; test: NCI screen, growth of human tumor cells: Breast Cancer MDA-MB-231/ATCC; conditions: MDA-MB-231/ATCC (Breast Cancer), 10^−4 molar
Procedure: as §1

[9] = test system: SW620; test: NCI screen, growth of human tumor cells: Colon Cancer SW620; conditions: SW620 (Colon Cancer), 10^−4 molar
Procedure: as §1

[10] = test system: HS 578T; test: NCI screen, growth of human tumor cells: Breast Cancer HS 578T; conditions: HS 578T (Breast Cancer), 10^−4 molar
Procedure: as §1

[11] = test system: MCF7/ADR-RES; test: NCI screen, growth of human tumor cells: Breast Cancer MCF7/ADR-RES; conditions: MCF7/ADR-RES (Breast Cancer), 10^−4 molar
Procedure: as §1

[12] = test system: 786-0; test: NCI screen, growth of human tumor cells: Renal Cancer 786-0; conditions: 786-0 (Renal Cancer), 10^−4 molar
Procedure: as §1

[13] = test system: HOP-62; test: NCI screen, growth of human tumor cells: Non-Small Cell Lung HOP-62; conditions: HOP-62 (Non-Small Cell Lung), 10^−4 molar
Procedure: as §1

[14] = test system: SNB-19; test: NCI screen, growth of human tumor cells: CNS Cancer SNB-19; conditions: SNB-19 (CNS Cancer), 10^−4 molar
Procedure: as §1

[15] = test system: SK-MEL-28; test: NCI screen, growth of human tumor cells: Melanoma SK-MEL-28; conditions: SK-MEL-28 (Melanoma), 10^−4 molar
Procedure: as §1

[16] = test system: COLO205; test: NCI screen, growth of human tumor cells: Colon Cancer COLO205; conditions: COLO205 (Colon Cancer), 10^−4 molar
Procedure: as §1

[17] = test system: NCI-H460; test: NCI screen, growth of human tumor cells: Non-Small Cell Lung NCI-H460; conditions: NCI-H460 (Non-Small Cell Lung), 10^−4 molar
Summary of the method: as §2

[18] = test system: HT29; test: NCI screen, growth of human tumor cells: Colon Cancer HT29; conditions: HT29 (Colon Cancer), 10^−4 molar
Procedure: as §1

[19] = test system: IGROVI; test: NCI screen, growth of human tumor cells: Ovarian Cancer IGROVI; conditions: IGROVI (Ovarian Cancer), 10^−4 molar
Procedure: as §1

[20] = test system: DU-145; test: NCI screen, growth of human tumor cells: Prostate Cancer DU-145; conditions: DU-145 (Prostate Cancer), 10^−4 molar
Procedure: as §1

[21] = test system: OVCAR-8; test: NCI screen, growth of human tumor cells: Ovarian Cancer OVCAR-8; conditions: OVCAR-8 (Ovarian Cancer), 10^−4 molar
Procedure: as §1

[22] = test system: KM12; test: NCI screen, growth of human tumor cells: Colon Cancer KM12; conditions: KM12 (Colon Cancer), 10^−4 molar
Procedure: as §1

[23] = test system: BT-549; test: NCI screen, growth of human tumor cells: Breast Cancer BT-549; conditions: BT-549 (Breast Cancer), 10^−4 molar
Procedure: as §1

[24] = test system: UACC-257; test: NCI screen, growth of human tumor cells: Melanoma UACC-257
Procedure: as §1

[25] = test system: SR; test: NCI screen, growth of human tumor cells: Leukemia SR; conditions: SR (Leukemia), 10^−4 molar
Summary of the method: as §2

[26] = test system: RXF-393; test: NCI screen, growth of human tumor cells: Renal Cancer RXF-393; conditions: RXF-393 (Renal Cancer), 10^−4 molar
Procedure: as §1

[27] = test system: NCI-H226; test: NCI screen, growth of human tumor cells: Non-Small Cell Lung NCI-H226; conditions: NCI-H226 (Non-Small Cell Lung), 10^−4 molar
Procedure: as §1

[28] = test system: PC-3; test: NCI screen, growth of human tumor cells: Prostate Cancer PC-3; conditions: PC-3 (Prostate Cancer), 10^−4 molar
Procedure: as §1

[29] = test system: OVCAR-5; test: NCI screen, growth of human tumor cells: Ovarian Cancer OVCAR-5; conditions: OVCAR-5 (Ovarian Cancer), 10^−4 molar
Procedure: as §1

[30] = test system: RPMI-8226; test: NCI screen, growth of human tumor cells: Leukemia RPMI-8226; conditions: RPMI-8226 (Leukemia), 10^−4 molar
Procedure: as §1

[31] = test system: MCF 7; test: NCI screen, growth of human tumor cells: Breast Cancer MCF 7; conditions: MCF 7 (Breast Cancer), 10^−4 molar
Procedure: as §1

[32] = test system: HOP-92; test: NCI screen, growth of human tumor cells: Non-Small Cell Lung HOP-92; conditions: HOP-92 (Non-Small Cell Lung), 10^−4 molar
Summary of the method: as §2

[33] = test system: human cancer cells; test: NCI screen summary over the cancers tested (negative growth of human cancer cells); conditions: 10^−4 M conc.; cancers with negative growth / cancers tested
Procedure: as §1
The derivatives in the tables are grouped using the same category as in the tables 1-6.

[34] = test system: K562; test: NCI screen, growth of human tumor cells: Leukemia K562; conditions: K562 (Leukemia), 10^−4 molar
Summary of the method: as §2

[35] = test system: HCT-15; test: NCI screen, growth of human tumor cells: Colon Cancer HCT-15
Procedure: as §1

[36] = test system: HCT-116; test: NCI screen, growth of human tumor cells: Colon Cancer HCT-116; conditions: HCT-116, 10^−4 molar
Procedure: as §1

[37] = test system: UACC-62; test: NCI screen, growth of human tumor cells: Melanoma UACC-62
Procedure: as §1

[38] = test system: M14; test: NCI screen, growth of human tumor cells: Melanoma M14; conditions: M14 (Melanoma), 10^−4 molar
Procedure: as §1

[39] = test system: MDA-MB-435; test: NCI screen, growth of human tumor cells: Breast Cancer MDA-MB-435; conditions: MDA-MB-435, 10^−4 molar
Procedure: as §1

[40] = test system: CAKI-1; test: NCI screen, growth of human tumor cells: Renal Cancer CAKI-1; conditions: CAKI-1 (Renal Cancer), 10^−4 molar
Procedure: as §1

[41] = test system: OVCAR-3; test: NCI screen, growth of human tumor cells: Ovarian Cancer OVCAR-3; conditions: OVCAR-3 (Ovarian Cancer), 10^−4 molar
Procedure: as §1

[42] = test system: ACHN; test: NCI screen, growth of human tumor cells: Renal Cancer ACHN; conditions: ACHN (Renal Cancer), 10^−4 molar
Summary of the method: as §2

[43] = test system: LOXIMVI; test: NCI screen, growth of human tumor cells: Melanoma LOXIMVI; conditions: LOXIMVI (Melanoma), 10^−4 molar
Procedure: as §1

[44] = test system: HL-60 (TB); test: NCI screen, growth of human tumor cells: Leukemia HL-60 (TB); conditions: HL-60 (TB) (Leukemia), 10^−4 molar
Procedure: as §1

[45] = test system: OVCAR-4; test: NCI screen, growth of human tumor cells: Ovarian Cancer OVCAR-4; conditions: OVCAR-4 (Ovarian Cancer), 10^−4 molar
Procedure: as §1

[46] = test system: SK-MEL-5; test: NCI screen, growth of human tumor cells: Melanoma SK-MEL-5; conditions: SK-MEL-5 (Melanoma), 10^−4 molar
Procedure: as §1

[47] = test system: SF-295; test: NCI screen, growth of human tumor cells: CNS Cancer SF-295; conditions: SF-295 (CNS Cancer), 10^−4 molar
Procedure: as §1

SMILES	percent of growth of human tumor cells [1] [%]	percent of growth of human tumor cells [3] [%]	percent of growth of human tumor cells [4] [%]	percent of growth of human tumor cells [5] [%]	percent of growth of human tumor cells [6] [%]	percent of growth of human tumor cells [8] [%]	percent of growth of human tumor cells [9] [%]	percent of growth of human tumor cells [10] [%]	percent of growth of human tumor cells [11] [%]	percent of growth of human tumor cells [13] [%]	percent of growth of human tumor cells [15] [%]	percent of growth of human tumor cells [17] [%]	percent of growth of human tumor cells [20] [%]	percent of growth of human tumor cells [21] [%]	percent of growth of human tumor cells [23] [%]	percent of growth of human tumor cells [25] [%]	percent of growth of human tumor cells [26] [%]	percent of growth of human tumor cells [28] [%]	percent of growth of human tumor cells [30] [%]	percent of growth of human tumor cells [31] [%]	further results
CC=CC(=O)C1(Cc2ccc3c(c2)C(=O)c2ccccc2C3=O)S(=O)(=O)OCCOS1(=O)=O [NSC 731263]	1	−23	−53	31	−24	−33	−38	−18	11	−38	−23	2	1	−39	−20	24	−45	11	−7	−17	% Growth ([2]; U251, 10^−4 molar): −85%; percent of growth of human tumor cells [7]: 15%; percent of growth of human tumor cells [12]: 1%; percent of growth of human tumor cells [14]: 10%; percent of growth of human tumor cells [16]: 5%; percent of growth of human tumor cells [18]: 1%; percent of growth of human tumor cells [19]: 3%; percent of growth of human tumor cells [22]: 2%; percent of growth of human tumor cells ([24]; UACC-257 (Melanoma), 10^−4 molar): −20%; percent of growth of human tumor cells [27]: 10%; percent of growth of human tumor cells [29]: 20%; percent of growth of human tumor cells [32]: −16%; Percentage of cancers showing negative growth cancers tested [33]: 10^−4 M conc. = 18/36 = 50%; percent of growth of human tumor cells [34]: 12%; % Growth ([35]; HCT-15, 10^−4 molar): −65%; % Growth [36]: −100%; percent of growth of human tumor cells ([37]; UACC-62 (Melanoma), 10^−4 molar): 16%
O=C1C(Cl)=C(C2S(=O)(=O)OCCOS2(=O)=O)C(=O)c2ccccc21 [NSC 731260, ethylene 3-chloro-1,4-naphtho-2-quinoylmethanedisulfonate]	30	1	−12	−54	10	−15	1	8	25	−56	−5	4	12	18	−32	15	28	9	−36	6	percent of growth of human tumor cells ([2]; U-251 (CNS Cancer), 10^−4 molar): 2%; percent of growth of human tumor cells [38]: −58%; % Growth [39]: −79%; percent of growth of human tumor cells [40]: 18%; percent of growth of human tumor cells [41]: 28%; percent of growth of human tumor cells [42]: −12%; % Growth ([24]; UACC-257, 10^−4 molar): −74%; percent of growth of human tumor cells [43]: −43%; percent of growth of human tumor cells [44]: 13%; percent of growth of human tumor cells [45]: 11%; percent of growth of human tumor cells [46]: −54%; percent of growth of human tumor cells [47]: −46%; percent of growth of human tumor cells [32]: −3%; Percentage of cancers showing negative growth cancers tested [33]: 10^−4 M conc. = 16/37 = 43%; percent of growth of human tumor cells [34]: 20%; percent of growth of human tumor cells ([35]; HCT-15 (Colon Cancer), 10^−4 molar): 17%; % Growth [36]: −89%; % Growth ([37]; UACC-62, 10^−4 molar): −86%
